Measurements as given in US8906889B2, “C-3 cycloalkenyl triterpenoids with HIV maturation inhibitory activity” (priority 2012, dated 2014).
Counter-ions that a name gives are not always drawn.

test system: recombinant NL4-3 virus (Renilla luciferase, Gag P373S); test: HIV cell culture assay (luciferase reporter, MT-2 cells); type: cell-based; conditions: MT-2 cells infected for 4-5 days with NLRluc recombinants; luciferase activity
Procedure: MT-2 cells and 293T cells were obtained from the NIH AIDS Research and Reference Reagent Program. MT-2 cells were propagated in RPMI 1640 media supplemented with 10% heat inactivated fetal bovine serum, […]. The 293T cells were propagated in DMEM media supplemented with 10% heat inactivated fetal bovine serum (FBS), 100 units/ml penicillin G and 100 μg/ml streptomycin. The proviral DNA clone of NL4-3 was obtained from the NIH AIDS Research and Reference Reagent Program. A recombinant NL4-3 virus, in which a section of the nef gene from NL4-3 was replaced with the Renilla luciferase gene, was used as a reference virus. In addition, residue Gag P373 was converted to P373S. Briefly, the recombinant virus was prepared by transfection of the altered proviral clone of NL4-3. Transfections were performed in 293T cells using LipofectAMINE PLUS from Invitrogen (Carlsbad, Calif.), according to manufacturer's instruction. The virus was titered in MT-2 cells using luciferase enzyme activity as a marker. Luciferase was quantitated using the Dual Luciferase kit from Promega (Madison, Wis.), with modifications to the manufacturer's protocol. The diluted Passive Lysis solution was pre-mixed with the re-suspended Luciferase Assay Reagent and the re-suspended Stop & Glo Substrate (2:1:1 ratio). Fifty (50) μL of the mixture was added to each aspirated well on assay plates and luciferase activity was measured immediately on a Wallac TriLux (Perkin-Elmer). Antiviral activities of inhibitors toward the recombinant virus were quantified by measuring luciferase activity in cells infected for 4-5 days with NLRluc recombinants in the presence serial dilutions of the inhibitor.

In order of falling EC50:
1. C=C(C)[C@@H]1CC[C@]2(NCCN3CCS(=O)(=O)CC3)CC[C@]3(C)[C@H](CC[C@@H]4[C@@]5(C)CC=C(C6=CC(C(=O)O)C(C(=O)O)C6)C(C)(C)[C@@H]5CC[C@]43C)[C@@H]12 (single isomer, unassigned) [Example A20]  60 nM
2. C=C(C)[C@@H]1CC[C@]2(NCCN3CCC(S(C)(=O)=O)CC3)CC[C@]3(C)[C@H](CC[C@@H]4[C@@]5(C)CC=C(C6=CC7C(C6)C7C(=O)O)C(C)(C)[C@@H]5CC[C@]43C)[C@@H]12 (single isomer, unassigned) [Example A28]  0.658 nM

same assay, conditions: Renilla, NL43, MT-2 cells infected for 4-5 days with NLRluc recombinants; luciferase activity

In order of rising EC50:
1. C=C(C)[C@@H]1CC[C@]2(NCCN3CCS(=O)(=O)CC3)CC[C@]3(C)[C@H](CC[C@@H]4[C@@]5(C)CC=C(C6=CCC(C(=O)O)CC6)C(C)(C)[C@@H]5CC[C@]43C)[C@@H]12 (stereo partly drawn) [Example 4, 4-((1R,3aS,5aR,5bR,7aR,11aS,11bR,13aR,13bR)-3a-((2-(1,1-dioxidothiomorpholino)ethyl)amino)-5a,5b,8,8,11a-pentamethyl-1-(prop-1-en-2-yl)-2,3,3a,4,5,5a,5b,6,7,7a,8,11,11a,11b,12,13,13a,13b-octadecahydro-1H-cyclopenta[a]chrysen-9-yl)cyclohex-3-enecarboxylic acid, TFA]  0.659 nM
2. C=C(C)[C@@H]1CC[C@]2(NCCN3CCS(=O)(=O)CC3)CC[C@]3(C)[C@H](CC[C@@H]4[C@@]5(C)CC=C(C6=CCC(C(=O)O)CC6)C(C)(C)[C@@H]5CC[C@]43C)[C@@H]12 (stereo in doubt) [Example 9, (R)-4-((1R,3aS,5aR,5bR,7aR,11aS,11bR,13aR,13bR)-3a-((2-(1,1-dioxidothiomorpholino)ethyl)amino)-5a,5b,8,8,11a-pentamethyl-1-(prop-1-en-2-yl)-2,3,3a,4,5,5a,5b,6,7,7a,8,11,11a,11b,12,13,13a,13b-octadecahydro-1H-cyclopenta[a]chrysen-9-yl)cyclohex-3-enecarboxylic acid, TFA]  0.892 nM
3. C=C(C)[C@@H]1CC[C@]2(NCCN3CCC(S(C)(=O)=O)CC3)CC[C@]3(C)[C@H](CC[C@@H]4[C@@]5(C)CC=C(C6=CC7C(C6)C7C(=O)O)C(C)(C)[C@@H]5CC[C@]43C)[C@@H]12 (single isomer, unassigned) [Example A27]  0.921 nM
4. C=C(C)[C@@H]1CC[C@]2(NCCN3CCS(=O)(=O)CC3)CC[C@]3(C)[C@H](CC[C@@H]4[C@@]5(C)CC=C(C6=CC7C(C6)C7C(=O)O)C(C)(C)[C@@H]5CC[C@]43C)[C@@H]12 (single isomer, unassigned) [Example A26]  0.941 nM
5. C=C(C)[C@@H]1CC[C@]2(NCCN3CCS(=O)(=O)CC3)CC[C@]3(C)[C@H](CC[C@@H]4[C@@]5(C)CC=C(C6=CCC(C(=O)O)CC6)C(C)(C)[C@@H]5CC[C@]43C)[C@@H]12 (stereo in doubt) [Example 10, (S)-4-((1R,3aS,5aR,5bR,7aR,11aS,11bR,13aR,13bR)-3a-((2-(1,1-dioxidothiomorpholino)ethyl)amino)-5a,5b,8,8,11a-pentamethyl-1-(prop-1-en-2-yl)-2,3,3a,4,5,5a,5b,6,7,7a,8,11,11a,11b,12,13,13a,13b-octadecahydro-1H-cyclopenta[a]chrysen-9-yl)cyclohex-3-enecarboxylic acid, TFA]  1.26 nM
6. C=C(C)[C@@H]1CC[C@]2(NCCN3CCC(S(C)(=O)=O)CC3)CC[C@]3(C)[C@H](CC[C@@H]4[C@@]5(C)CC=C(C6=CCC(NC(C)=O)(C(=O)O)CC6)C(C)(C)[C@@H]5CC[C@]43C)[C@@H]12 (mixture of isomers) [Example A32, 1-acetamido-4-((1R,3aS,5aR,5bR,7aR,11aS,11bR,13aR,13bR)-5a,5b,8,8,11a-pentamethyl-3a-((2-(4-(methylsulfonyl)piperidin-1-yl)ethyl)amino)-1-(prop-1-en-2-yl)-2,3,3a,4,5,5a,5b,6,7,7a,8,11,11a,11b,12,13,13a,13b-octadecahydro-1H-cyclopenta[a]chrysen-9-yl)cyclohex-3-enecarboxylic acid]  1.5 nM
7. C=C(C)[C@@H]1CC[C@]2(NCCN3CCS(=O)(=O)CC3)CC[C@]3(C)[C@H](CC[C@@H]4[C@@]5(C)CC=C(C6=CC7(C6)CC(C(=O)O)C7)C(C)(C)[C@@H]5CC[C@]43C)[C@@H]12 (stereo partly drawn) [Example 3, 6-((1R,3aS,5aR,5bR,7aR,11aS,11bR,13aR,13bR)-3a-((2-(1,1-dioxidothiomorpholino)ethyl)amino)-5a,5b,8,8,11a-pentamethyl-1-(prop-1-en-2-yl)-2,3,3a,4,5,5a,5b,6,7,7a,8,11,11a,11b,12,13,13a,13b-octadecahydro-1H-cyclopenta[a]chrysen-9-yl)spiro[3.3]hept-5-ene-2-carboxylic acid, HCl]  1.54 nM
8. C=C(C)[C@@H]1CC[C@]2(NCCN3CCS(=O)(=O)CC3)CC[C@]3(C)[C@H](CC[C@@H]4[C@@]5(C)CC=C(C6=CCC(C(F)(F)C(=O)O)C6)C(C)(C)[C@@H]5CC[C@]43C)[C@@H]12 (single isomer, unassigned) [Example A24]  4.65 nM
9. C=C(C)[C@@H]1CC[C@]2(NCCN3CCS(=O)(=O)CC3)CC[C@]3(C)[C@H](CC[C@@H]4[C@@]5(C)CC=C(C6=CC(C(F)(F)C(=O)O)CC6)C(C)(C)[C@@H]5CC[C@]43C)[C@@H]12 (single isomer, unassigned) [Example A23]  5.63 nM
10. C=C(C)[C@@H]1CC[C@]2(NCCN3CCS(=O)(=O)CC3)CC[C@]3(C)[C@H](CC[C@@H]4[C@@]5(C)CC=C(C6=CC7(C6)CC(C(=O)O)(C(=O)O)C7)C(C)(C)[C@@H]5CC[C@]43C)[C@@H]12 [Example 1, 6-((1R,3aS,5aR,5bR,7aR,11aS,11bR,13aR,13bR)-3a-((2-(1,1-dioxidothiomorpholino)ethyl)amino)-5a,5b,8,8,11a-pentamethyl-1-(prop-1-en-2-yl)-2,3,3a,4,5,5a,5b,6,7,7a,8,11,11a,11b,12,13,13a,13b-octadecahydro-1H-cyclopenta[a]chrysen-9-yl)spiro[3.3]hept-5-ene-2,2-dicarboxylic acid, HCl]  10 nM
11. C=C(C)[C@@H]1CC[C@]2(NCCN3CCS(=O)(=O)CC3)CC[C@]3(C)[C@H](CC[C@@H]4[C@@]5(C)C=CC(=C6CC7(C6)CC(C(=O)O)(C(=O)O)C7)C(C)(C)[C@@H]5CC[C@]43C)[C@@H]12 [Example 2, 6-((1R,3aS,5aR,5bR,7aR,11aS,11bR,13aR,13bR)-3a-((2-(1,1-dioxidothiomorpholino)ethyl)amino)-5a,5b,8,8,11a-pentamethyl-1-(prop-1-en-2-yl)-2,3,3a,4,5,5a,6,7,7a,8,11b,12,13,13a-tetradecahydro-1H-cyclopenta[a]chrysen-9(5bH,11aH,13bH)-ylidene)spiro[3.3]heptane-2,2-dicarboxylic acid, HCl]  30 nM
12. C=C(C)[C@@H]1CC[C@]2(C(=O)O)CC[C@]3(C)[C@H](CC[C@@H]4[C@@]5(C)CC=C(C6=CC7(C6)CC(C(=O)O)(C(=O)O)C7)C(C)(C)[C@@H]5CC[C@]43C)[C@@H]12 [Example 6, 6-((1R,3aS,5aR,5bR,7aR,11aS,11bR,13aR,13bR)-3a-carboxy-5a,5b,8,8,11a-pentamethyl-1-(prop-1-en-2-yl)-2,3,3a,4,5,5a,5b,6,7,7a,8,11,11a,11b,12,13,13a,13b-octadecahydro-1H-cyclopenta[a]chrysen-9-yl)spiro[3.3]hept-5-ene-2,2-dicarboxylic acid]  30 nM
13. CC(C)[C@@H]1CC[C@]2(NCCN3CCS(=O)(=O)CC3)CC[C@]3(C)[C@H](CC[C@@H]4[C@@]5(C)CC=C(C6CC7(C6)CC(C(=O)O)(C(=O)O)C7)C(C)(C)[C@@H]5CC[C@]43C)[C@@H]12 [Example 5, 6-((1S,3aS,5aR,5bR,7aR,11aS,11bR,13aR,13bR)-3a-((2-(1,1-dioxidothiomorpholino)ethyl)amino)-1-isopropyl-5a,5b,8,8,11a-pentamethyl-2,3,3a,4,5,5a,5b,6,7,7a,8,11,11a,11b,12,13,13a,13b-octadecahydro-1H-cyclopenta[a]chrysen-9-yl)spiro[3.3]heptane-2,2-dicarboxylic acid, TFA]  40 nM
14. C=C(C)[C@@H]1CC[C@]2(NCCN3CCS(=O)(=O)CC3)CC[C@]3(C)[C@H](CC[C@@H]4[C@@]5(C)CC=C(C6=CC(C(=O)O)C(C(=O)O)C6)C(C)(C)[C@@H]5CC[C@]43C)[C@@H]12 (single isomer, unassigned) [Example A19]  100 nM
15. C=C(C)[C@@H]1CC[C@]2(NCCN3CCC(S(C)(=O)=O)CC3)CC[C@]3(C)[C@H](CC[C@@H]4[C@@]5(C)CC=C(C6=CCC(CC(=O)O)CC6)C(C)(C)[C@@H]5CC[C@]43C)[C@@H]12 (mixture of isomers) [Example A33, 2-(4-((1R,3aS,5aR,5bR,7aR,11aS,11bR,13aR,13bR)-5a,5b,8,8,11a-pentamethyl-3a-((2-(4-(methylsulfonyl)piperidin-1-yl)ethyl)amino)-1-(prop-1-en-2-yl)-2,3,3a,4,5,5a,5b,6,7,7a,8,11,11a,11b,12,13,13a,13b-octadecahydro-1H-cyclopenta[a]chrysen-9-yl)cyclohex-3-en-1-yl)acetic acid]  570 nM
